Results: US20230271995A1, “METHODS FOR PRODUCING DIHYDRONICOTINAMIDE RIBOSIDE FROM NICOTINAMIDE RIBOSIDE CHLORIDE” (SOCIETE DES PRODUITS NESTLE S.A., priority 2020, published 2023)

Columns and labels:
[1] = Stability of NRH and NR aqueous solutions over 60 days of storage, remaining concentration by HPLC; details: aqueous solution, atmosphere not stated
NAD^+ = details: NR taken as a supplement; cited from earlier work
[2] = Thermogravimetric analysis (TGA) thermal stability under N2; assay type: physicochemical; details: 25 to 900° C.
Description: Characterization. […] Thermogravimetric analysis (TGA) thermograms were prepared in the range of 20-900° C. at a temperature rate of 10° C. min^−1 under N2 flow, using a TA Q100 instrument.

Row | SMILES | degradation ([1]; 4° C., 60 days) | degradation ([1]; 25° C., 30 days) [%] | degradation ([1]; 25° C., 60 days) [%] | boost of the level of NAD^+ (NAD^+) [%] | temperature of greatest weight loss (TGA) ([2]; 10° C. min^−1, N2 atmosphere) [°C] | weight loss at the temperature of greatest weight loss (TGA) ([2]; N2 atmosphere)
1 | NC(=O)c1ccc[n+]([C@@H]2O[C@H](CO)[C@@H](O)[C@H]2O)c1 [NR, nicotinamide riboside] | no detectable degradation | 48 | 68 | 60 | ~910 | 
2 | NC(=O)c1ccc[n+]([C@@H]2O[C@H](CO)[C@@H](O)[C@H]2O)c1.[Cl-] [NRCl, nicotinamide riboside chloride] |  |  |  |  |  | around 65%
